Test results: patent US20210349099A1, “CANCER BIOMARKERS AND METHODS OF USE THEREOF” (X4 Pharmaceuticals, Inc., priority 2017, published 2021)

Tested on: melanoma tumor gene signatures
Assay: NanoString nCounter gene expression of FFPE melanoma biopsies
Type: in vivo, human
From the text: FFPE gene expression analysis: For each gene biomarker, RNA was extracted from FFPE slides using Qiagen's AllPrep kit (Cat. 80234) and analyzed using NanoString nCounter platform with the PanCancer Immune probe set. Raw counts were normalized using the geometric mean of 30 housekeeping genes and the normalized data from both panels were merged and analyzed with nSolver software (Version 4.0).
Interferon gene signature was based on Ayers et al (JCI 2017) and calculated in the following manner. For each patient (pt) sample, the geometric mean was calculated from the normalized counts for six genes (IFN-γ, CXCL9, CXCL10, HLA-DRA, IDO1, STAT1) and then the mean was Log 10-transformed to generate the Gene Expression score. […] Gene scores were calculated for each patient sample from the geometric mean of normalized counts for IFN-gamma, CXCL9, CXCL10, HLA-DRA, IDO1, and STAT1. The mean was Log 10-transformed to generate the Gene Expression score.
The tumor inflammatory signature (TIS) was calculated from 18 genes by taking the Log 10 of the geometric mean of the normalized counts across each gene set to generate a “Gene signature score”. See, e.g., Righi E, Kashiwagi S, Yuan J, et al. “CXCL12/CXCR4 Blockade Induces Multimodal Antitumor Effects That Prolong Survival in an Immunocompetent Mouse Model of Ovarian Cancer,” Cancer Res. 2011; 71(16):5522-5534.
Raw counts were normalized using the geometric mean of housekeeping genes. The Interferon-gamma gene signature score was assessed by a procedure essentially as described in Ayers et al. (2017) J. Clin. Invest. 127:2930-2940.
To perform the CTL signature measurement, RNA was extracted from FFPE slides using Qiagen's AllPrep kit and analyzed using the NanoString nCounter platform with the PanCancer Immune probe set. Raw counts were normalized using the geometric mean of housekeeping genes. NanoString nCounter validation is described at Malkov et al. (2009) BMC Research Notes; 2:80; accessed Nov. 2, 2017 at https://bmcresnotes.biomedcentral.com/articles/10.1186/1756-0500-2-80; Waggott et al. (2012) Bioinformatics 28:1546-1548; see also nCounter® Analysis System User Manual (July 2015), published by NanoString Technologies®, Inc., accessed Nov. 2, 2017, at https://www.nanostring.com/application/files/7114/8942/6665/MAN-C0035-05_nCounter Analysis_System_GEN2.pdf.
For each gene biomarker, RNA was extracted from FFPE slides using Qiagen's AllPrep kit (Cat. 80234) and analyzed using NanoString nCounter platform with the PanCancer Immune probe set. Raw counts were normalized using the geometric mean of housekeeping genes, as described above.
Antigen Presentation/Processing Gene Signature was calculated by taking the geometric mean of the normalized counts for eighteen (18) genes (B2M, CD74, CTSL, CTSS, HLA-DMA, HLA-DMB, HLA-DOB, HLA-DPA1, HLA-DPB1, HLA-DQA1, HLA-DQB1, HLA-DRA, HLA-DRB1, HLA-DRB3, PSMB8, PSMB9, TAP1, and TAP2) and then Log 10-transforming the mean to generate the Gene Expression Score.
Tumor Inflammation Signature was calculated by taking the geometric mean of the normalized counts for eighteen (18) genes (CCL5, CD27, CD274, CD276, CD8A, CMKLR1, CXCL9, CXCR6, HLA-DQA1, HLA-DRB1, HLA-E, IDO1, LAG3, NKG7, PDCD1LG2, PSMB10, STAT1, and TIGIT) and then Log 10-transforming the mean to generate the Gene Expression Score.

[1] = pre- vs post-dosing, five patients
[2] = pre- vs post-dosing, patients 2, 3, 5, 8, and 9

NCCCCN(Cc1nc2ccccc2[nH]1)[C@H]1CCCc2cccnc21 [X4P-001]
CD8A expression (NanoString nCounter): increased
CD8B expression (NanoString nCounter): increased
granzyme B expression (NanoString nCounter): increased
Tumor Inflammation Signature Gene Expression Score, Post-X4P-001 Score (Patient 2, Pre-Dose Score 2.123, Log 10 of geometric mean of 18 genes): 2.225
Antigen Presentation/Processing Gene Expression Score, Post-X4P-001 Score (Patient 2, Pre-Dose Score 2.94, Log 10 of geometric mean of 18 genes): 2.986
Tumor Inflammation Signature Gene Expression Score, Post-X4P-001 Score (Patient 3, Pre-Dose Score 2.647): 2.798
Antigen Presentation/Processing Gene Expression Score, Post-X4P-001 Score (Patient 3, Pre-Dose Score 3.139): 3.324
Tumor Inflammation Signature Gene Expression Score, Post-X4P-001 Score (Patient 5, Pre-Dose Score 2.871): 3.257
Antigen Presentation/Processing Gene Expression Score, Post-X4P-001 Score (Patient 5, Pre-Dose Score 3.519): 3.806
Tumor Inflammation Signature Gene Expression Score, Post-X4P-001 Score (Patient 8, Pre-Dose Score 2.508): 2.834
Antigen Presentation/Processing Gene Expression Score, Post-X4P-001 Score (Patient 8, Pre-Dose Score 3.134): 3.518
Tumor Inflammation Signature Gene Expression Score, Post-X4P-001 Score (Patient 9, Pre-Dose Score 2.233): 2.597
Antigen Presentation/Processing Gene Expression Score, Post-X4P-001 Score (Patient 9, Pre-Dose Score 3.082): 3.495
cytotoxic T lymphocyte (CTL) gene signature gene expression score [1]: increased for each one of the five patients
interferon gamma (IFN-γ) gene signature Gene Expression Score [1]: increased for each one of the five patients
Antigen Presentation/Processing Gene Expression Score, change [2]: increased for each patient
Tumor Inflammation Signature Gene Expression Score, change [2]: increased for each patient
